Experimental data published in US20090088432A1, “Thiazolinones and Oxazolinones and their Use as Ptp1b Inhibitors” (priority 2005, published 2009).

Molecular target: T1, Recombinant human Protein-tyrosine phosphatase1B (PTP1B) (Homo sapiens, UniProt P18031)
T1 construct: Recombinant human Protein-tyrosine phosphatase1B (PTP1B) (amino acid 1-322 Biomol, USA); purchased Biomol, USA
T1 sequence (P18031 1-322): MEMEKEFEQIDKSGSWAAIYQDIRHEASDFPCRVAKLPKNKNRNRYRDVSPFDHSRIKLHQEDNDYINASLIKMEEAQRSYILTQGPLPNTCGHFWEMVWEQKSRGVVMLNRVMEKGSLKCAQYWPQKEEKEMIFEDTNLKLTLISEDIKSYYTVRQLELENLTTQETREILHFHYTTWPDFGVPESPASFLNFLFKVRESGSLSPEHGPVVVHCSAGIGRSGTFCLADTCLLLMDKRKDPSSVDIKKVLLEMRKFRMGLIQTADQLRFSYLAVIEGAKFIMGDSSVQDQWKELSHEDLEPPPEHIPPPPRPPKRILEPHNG
Test: PTP1B enzyme inhibition assay (pNpp substrate)
Type: biochemical
Conditions: inhibition of recombinant human PTP1B, pNpp 5 mM, 30 mins at 25° C; inhibitor concentration not given
Description: Protein tyrosine phosphatase 1B (PTP1B) is an intracellular enzyme which functions by removing the phosphate groups from phosphorylated tyrosine residues of cellular proteins. PTP1B has been implicated as a negative regulator of insulin action and therefore is of therapeutic interest. The ability of the test compounds to inhibit the activity of PTP1B is determined using an enzyme inhibition assay.
The assay is performed using two independent substrates of PTP1B namely, p-nitrophenyl phosphate (pNpp) and the phosphorylated Epidermal growth factor receptor peptide (EGFR).
In the assay performed with pNpp, the action of PTP1B results in the release of p-nitrophenol, which is yellow in colour and can be measured at 410 nm. In the case of the assay using EGFR, action of PTP1B results in the release of free phosphate group. This is trapped using a reagent containing ammonium molybdate and malachite green resulting in a colored complex whose absorbance can be measured at 620 nm.
1× Assay buffer 50 mM HEPES (pH 7.4) • 1 mM EDTA • 1 mM DTT • 0.05% Igepal® CA-630
Dilute recombinant Human PTP1B 1:150 in 1× Assay buffer for 10× stock,
Prepare 10× stock of pNpp (50 mM) in 1× Assay buffer
Prepare 100× stock in 100% DMSO, dilute 1:10 with 1× Assay buffer to get 10× stock in 10% DMSO.
PTP1B inhibition assay was performed using recombinant human PTP1B. PTP1B (0.016 μg/well) was incubated in a buffer containing 50 mM HEPES, 1 mM DTT, 1 mM EDTA and 0.05% Igepal® CA-630 with or without inhibitor (10× stock, final DMSO concentration is 1%) for 30 mins at 25° C. This was followed by addition of p-Nitrophenyl phosphate (pNpp) substrate (5 mM). The final volume of the reaction mixture is 50 μL and experiment was done in 96 well half area plate. The incubation was continued for 30 mins at 25° C. The conversion of pNpp to p-Nitrophenol (pNp) was measured at 410 nm in Spectramaxplus Spectrophotometer (Molecular Devices, USA).

Compound	Activity Score
O=C(O)Cc1ccc(NC2=NC(=O)C(=Cc3cccc(-n4cnc5ccccc54)c3)S2)cc1 [Compound 88, {4-[5-(3-Benzoimidazol-1-yl-benzylidene)-4-oxo-4,5-dihydro-thiazol-2-ylamino]-phenyl}-acetic acid]	(+++) (+++ = >50% inhibition)
O=C(O)Cc1ccc(NC2=NC(=O)C(=Cc3cc4ccccc4cc3O)S2)cc1 [Compound 32, {4-[5-(3-Hydroxy-naphthalen-2-ylmethylene)-4-oxo-4,5-dihydro-thiazol-2-ylamino]-phenyl}-acetic acid]	(+++) (+++ = >50% inhibition)
CCC(C(=O)O)c1ccc(NC2=NC(=O)C(=Cc3cc4ccccc4cc3OCc3ccccc3)S2)cc1 (stereo not drawn) [Compound 48, 2-{4-[5-(3-Benzyloxy-naphthalen-2-ylmethylene)-4-oxo-4,5-dihydro-thiazol-2-ylamino]-phenyl}-butyric acid]	(+++) (+++ = >50% inhibition)
O=C(O)Cc1ccc(NC2=NC(=O)C(=Cc3cccc(-n4cccc4)c3)S2)cc1 [Compound 51, {4-[4-Oxo-5-(3-pyrrol-1-yl-benzylidene)-4,5-dihydro-thiazol-2-ylamino]-phenyl}-acetic acid]	(+++) (+++ = >50% inhibition)
O=C(O)Cc1ccc(NC2=NC(=O)C(=Cc3cn(CC(=O)O)c4ccccc34)S2)cc1 [Compound 2, {4-[5-(1-Carboxymethyl-1H-indol-3-ylmethylene)-4-oxo-4,5-dihydro-thiazol-2-ylamino]-phenyl}-acetic acid]	(+++) (+++ = >50% inhibition)
CC(C)(C)OC(=O)Cn1cc(C=C2SC(Nc3ccc(CC(=O)O)cc3)=NC2=O)c2ccccc21 [Compound 11, {4-[5-(1-tert-Butoxycarbonylmethyl-1H-indol-3-ylmethylene)-4-oxo-4,5-dihydro-thiazol-2-ylamino]-phenyl}-acetic acid]	(++) (++ = 20-50% inhibition)
O=C(O)Cn1ccc2cc(NC3=NC(=O)C(=Cc4cc5ccccc5cc4OCc4ccccc4)S3)ccc21 [Compound 47, {5-[5-(3-Benzyloxy-naphthalen-2-ylmethylene)-4-oxo-4,5-dihydro-thiazol-2-ylamino]-indol-1-yl}-acetic acid]	(+++) (+++ = >50% inhibition)
CC(C(=O)O)c1ccc(NC2=NC(=O)C(=Cc3ccc4ccccc4c3)S2)cc1 (stereo not drawn) [Compound 53, 2-[4-(5-Naphthalen-2-yl-ethylene-4-oxo-4,5-dihydro-thiazol-2-ylamino)-phenyl]-propionic acid]	(++) (++ = 20-50% inhibition)
O=C([O-])CCc1ccc(NC2=NC(=O)C(=Cc3ccc4ccccc4c3)S2)cc1.[Na+] [Compound 89, 3-[4-(5-Naphthalen-2-ylmethylene-4-oxo-4,5-dihydro-thiazol-2-ylamino)-phenyl]-sodium propionate]	(+) (+ = 10-20% inhibition)
O=C(O)Cc1ccc(NC2=NC(=O)C(=Cc3coc4ccccc4c3=O)S2)cc1 [Compound 71, {4-[4-oxo-5-(4-oxo-4H-chromen-3-ylmethylene)-4,5-dihydro-thiazol-2-ylamino]-phenyl}-acetic acid]	(+++) (+++ = >50% inhibition)

Further lines, results first:

Activity Score	Compound
(+++) (+++ = >50% inhibition)	Cc1ccc(S(=O)(=O)NC(=O)Cc2ccc(NC3=NC(=O)C(=Cc4ccc(N5CCN(c6ccccn6)CC5)cc4)S3)cc2)cc1.[Na] [Compound 173, 4-Methyl-N-[2-(4-{4-oxo-5-[4-(4-pyridin-2-yl-piperazin-1-yl)-benzylidene]-4,5-dihydro-thiazol-2-ylamino}-phenyl)-acetyl]-benzenesulfonamide sodium salt]
(+++) (+++ = >50% inhibition)	COc1cc2ccccc2cc1C=C1SC(Nc2ccc(CCC(=O)[O-])cc2)=NC1=O.[Na+] [Compound 177, 3-{-4-[5-(3-Methoxy-naphthalen-2-ylmethylene)-4-oxo-4,5-dihydro-thiazol-2-ylamino]-phenyl}-sodium propionate]
(++) (++ = 20-50% inhibition)	Cc1ccc(S(=O)(=O)NC(=O)Cc2ccc(NC3=NC(=O)C(=Cc4cc5ccccc5cc4OCc4ccccc4)S3)cc2)cc1.[Na] [Compound 104, N-(2-{4-[5-(3-Benzyloxy-naphthalen-2-ylmethylene)-4-oxo-4,5-dihydro-thiazol-2-ylamino]-phenyl}-acetyl)-4-methyl-benzenesulfonamide sodium salt]
(+++) (+++ = >50% inhibition)	O=C(Cc1ccc(NC2=NC(=O)C(=Cc3ccc(-c4ccccc4)cc3)S2)cc1)NS(=O)(=O)c1ccc(C(F)(F)F)cc1.[Na] [Compound 219, N-{2-[4-(5-Biphenyl-4-ylmethylene-4-oxo-4,5-dihydro-thiazol-2-ylamino)-phenyl]-acetyl}-4-trifluoromethyl-benzenesulfonamide, sodium salt]
(++) (++ = 20-50% inhibition)	O=C(O)Cc1csc(NC2=NC(=O)C(=Cc3ccc(-c4ccccc4)cc3)S2)n1 [Compound 130, [2-(5-Biphenyl-4-ylmethylene-4-oxo-4,5-dihydro-thiazol-2-ylamino)-thiazol-4-yl]-acetic acid]
(+++) (+++ = >50% inhibition)	Cc1ccc(S(=O)(=O)NC(=O)Cc2ccc(NC3=NC(=O)C(=Cc4ccc5c(c4)OCCO5)S3)cc2)cc1 [Compound 125, N-(2-{4-[5-(2,3-Dihydro-benzo[1,4]dioxin-6-ylmethylene)-4-oxo-4,5-dihydro-thiazol-2-ylamino]-phenyl}-acetyl)-4-methyl-benzenesulfonamide]
(++) (++ = 20-50% inhibition)	O=C(Cc1ccc(NC2=NC(=O)C(=Cc3ccc(-c4ccccc4)cc3)S2)cc1)NS(=O)(=O)c1cccs1.[Na] [Compound 223, Thiophene-2-sulfonic acid {2-[4-(5-biphenyl-4-ylmethylene-4-oxo-4,5-dihydro-thiazol-2-ylamino)-phenyl]-acetyl}-amide, sodium salt]
(++) (++ = 20-50% inhibition)	O=C(O)Cc1ccc(NC2=NC(=O)C(=Cc3cccc(-n4cccn4)c3)S2)cc1 [Compound 91, {4-[4-Oxo-5-(3-pyrazol-1-yl-benzylidene)-4,5-dihydro-thiazol-2-ylamino]-phenyl}-acetic acid]
(+++) (+++ = >50% inhibition)	COc1c(C=C2SC(Nc3ccc(CC(=O)O)cc3)=NC2=O)ccc2ccccc12 [Compound 146, {4-[5-(1-Methoxy-naphthalen-2-ylmethylene)-4-oxo-4,5-dihydro-thiazol-2-ylamino]-phenyl}-acetic acid]
(+++) (+++ = >50% inhibition)	O=C([O-])CCc1ccc(NC2=NC(=O)C(=Cc3cc4ccccc4cc3OCc3ccccc3)S2)cc1.[Na+] [Compound 96, 3-{4-[5-(3-Benzyloxy-naphthalen-2-ylmethylene)-4-oxo-4,5-dihydro-thiazol-2-lamino]-phenyl}-sodium propionate]
(++) (++ = 20-50% inhibition)	Cc1ccc(S(=O)(=O)NC(=O)Cc2ccc(NC3=NC(=O)C(=Cc4ccc(-c5ccc(O)cc5)cc4)S3)cc2)cc1.[Na].[Na] [Compound 212, N-(2-{4-[5-(4′Hydroxy-biphenyl-4-ylmethylene)-4-oxo-4,5-dihydro-thiazol-2-ylamino]-phenyl}-acetyl)-4-methyl-benzenesulfonamide di-sodium salt]
